Reference: article PMC5805504 (Oncotarget, 2017)
Where “and” joins values, the source holds several entries; their conditions need not be identical. Equal values may be shown once. Read-outs that look alike come from different tables or passages of the source.

How the values were obtained:
[1] = system: TGFβ-responsive p3TP-Lux reporter in Mv1Lu cells; experiment: Mink lung epithelial cell p3TP-Lux reporter assay; type: cell-based; details: TGFβ1-mediated luciferase production, read-out: IC50 (SE), Mv1Lu p3TP-Lux
Description: The TGFβ-responsive p3TP-Lux reporter construct was stably expressed in Mv1Lu mink lung epithelial cells. […] Media was replaced with 0.5% FBS/DMEM and incubated at 37C/5% CO2 for 2 hours. […] The following day, cells were washed with PBS and lysed with lysis buffer by incubating for 20 to 30 minutes at room temperature. Counts were taken on the MicroBeta JET by injecting 50 μL Luciferase Assay Reagent II (PROMEGA), delay for 1 second and count for 5 seconds. Curve fitting utilized a 4-parameter logistic model and absolute IC50 values were reported.

[2] = system: 4T1 syngenic murine breast cancer model; experiment: 4T1 in vivo syngenic breast cancer model; parameters: species or system BALB/c mice
Description: Female BALB/c mice from Taconic Farms weighing 20 to 24 grams were acclimated for 1 week prior to study initiation, had ad libitum access to food and were shaved in the implant area prior to the orthotopic injection of 1 × 10^5 4T1 cells into the mammary fat pad in a volume of 20 μL media. Ten animals per group were utilized for tumor measurement and survival endpoints. […] Tumor volumes were determined by electronic caliper every 2 to 3 days. Statistical analysis was performed by repeated measures analysis and Kaplan-Meier analysis.

BMPR2 = molecular target: T1, BMPR2 (Homo sapiens, UniProt Q13873); experiment: KINOMEscan kinase competition binding assay (DiscoverX); details: absence of ATP, three-point titration
T1 construct: purchased DiscoverX
From the text: (§1) Data are presented as Geomean ± SD.

TNIK = molecular target: T2, TNIK (Homo sapiens, UniProt Q9UKE5); experiment: as above; details: absence of ATP, three-point titration
T2 construct: purchased DiscoverX
From the text: as §1

Alk6/BMPR1 = molecular target: T3, Alk6/BMPR1 (Homo sapiens, UniProt O00238); experiment: as above; details: absence of ATP, three-point titration
T3 construct: purchased DiscoverX
From the text: as §1

Abl1 = molecular target: T4, Abl1 (Homo sapiens, UniProt P00519); experiment: as above; details: absence of ATP, three-point titration
T4 construct: purchased DiscoverX
From the text: as §1

Alk1/ACVRL1 = molecular target: T5, Alk1/ACVRL1 (Homo sapiens, UniProt P37023); experiment: as above; details: absence of ATP, three-point titration
T5 construct: purchased DiscoverX
From the text: as §1

NLK = molecular target: T6, NLK (Homo sapiens, UniProt Q9UBE8); experiment: as above; details: absence of ATP, three-point titration
T6 construct: purchased DiscoverX
From the text: as §1

TGFβR2 = molecular target: T7, TGFβR2 (Homo sapiens, UniProt P37173); experiment: as above; details: absence of ATP, three-point titration
T7 construct: purchased DiscoverX
From the text: as §1

CSNK1E1 = molecular target: T8, CSNK1E1 (Homo sapiens, UniProt P49674); experiment: as above; details: absence of ATP, three-point titration
T8 construct: purchased DiscoverX
From the text: as §1

MINK = molecular target: T9, MINK (Homo sapiens, UniProt Q8N4C8); experiment: as above; details: absence of ATP, three-point titration
T9 construct: purchased DiscoverX
From the text: as §1

GAK = molecular target: T10, GAK (Homo sapiens, UniProt O14976); experiment: as above; details: absence of ATP, three-point titration
T10 construct: purchased DiscoverX
From the text: as §1

Alk2/ACVR1 = molecular target: T11, Alk2/ACVR1 (Homo sapiens, UniProt Q04771); experiment: as above; details: absence of ATP, three-point titration
T11 construct: purchased DiscoverX
From the text: as §1

RSK4 = RSK4 (Homo sapiens, UniProt Q9UK32); experiment: as above; details: absence of ATP, three-point titration
From the text: as §1

Alk3/BMPR1A = molecular target: T12, Alk3/BMPR1A (Homo sapiens, UniProt P36894); experiment: as above; details: absence of ATP, three-point titration
T12 construct: purchased DiscoverX
From the text: as §1

ACVR2B = molecular target: T13, ACVR2B (Homo sapiens, UniProt Q13705); experiment: as above; details: absence of ATP, three-point titration
T13 construct: purchased DiscoverX
From the text: as §1

Braf = molecular target: T14, Braf (Homo sapiens, UniProt P15056); experiment: as above; details: absence of ATP, three-point titration
T14 construct: purchased DiscoverX
From the text: as §1

Alk4/ACVR1B = molecular target: T15, Alk4/ACVR1B (Homo sapiens, UniProt P36896); experiment: as above; details: absence of ATP, three-point titration
T15 construct: purchased DiscoverX
From the text: as §1

ACVR2A = molecular target: T16, ACVR2A (Homo sapiens, UniProt P27037); experiment: as above; details: absence of ATP, three-point titration
T16 construct: purchased DiscoverX
From the text: as §1

ZAK = molecular target: T17, ZAK (Homo sapiens, UniProt Q9NYL2); experiment: as above; details: absence of ATP, three-point titration
T17 construct: purchased DiscoverX
From the text: as §1

RIPK2 = molecular target: T18, RIPK2 (Homo sapiens, UniProt O43353); experiment: as above; details: absence of ATP, three-point titration
T18 construct: purchased DiscoverX
From the text: as §1

U87MG glioblastoma cells = experiment: U87MG in vitro cell migration assay; type: cell-based, human
Description: U87MG cells were cultured in minimum essential medium (MEM) supplemented with 10% fetal bovine serum (FBS). Eight micron migration plates (24 well) were coated with denatured collagen I (BD, cat# 354326) at 10 μg/ml. Following overnight incubation at 4°C, the lower chambers were washed three times with phosphate buffered saline (PBS) followed by blocking with 1% bovine serum albumin (BSA) for 1 hour. The chambers were washed 3 times in PBS then 200 μl of migration buffer [MEM containing 5% blocking solution (Sigma, cat# 2393), […]] was added. […] After 1 hour of culture, 10 ng/ml of recombinant human (rh) TGFβ1 was added to upper chambers and cells were allowed to migrate in a 37°C incubator for 48 hours. The non-migrated cells were aspirated and wiped off the upper chamber with a cotton swab. The inserts were washed 3 times with PBS and the chambers transferred to new […]. The chambers were fixed with 500 μl of 10% neutral buffered formalin (NBF) for 20 minutes followed by three washes with PBS. The cells were stained with Hoechst at 1:10,000 for 20 minutes in the dark then washed three times with PBS. The membranes were cut with a scalpel, placed on a slide and the pictures were taken using Eclipse 90i Microscope. Image Pro-Analyzer 7.0 was used for analysis of migrated cells.

TGFβRII = TGFβRII (Homo sapiens, UniProt P37173); experiment: Autophosphorylation kinase assay
[3] = system: MX1 human xenograft breast cancer model; experiment: MX1 in vivo xenograft cancer model; parameters: species or system athymic nude mice
Description: Female athymic nude mice from Charles River weighing 22 to 26 grams were implanted subcutaneously in the flank with 1×10^7 cells in a 1:1 (v/v) mixture in matrigel. […] Tumor volumes and body weight were determined by electronic caliper every 2 to 3 days. Repeat measures analysis was utilized with log transformed data and the auto-regression (AR) method to determine the overall p-value for galunisertib growth curves relative to the vehicle control in both tumor models. […]

[4] = 75 mg/kg twice daily, data not shown

T13 sequence (Q13705 19-512): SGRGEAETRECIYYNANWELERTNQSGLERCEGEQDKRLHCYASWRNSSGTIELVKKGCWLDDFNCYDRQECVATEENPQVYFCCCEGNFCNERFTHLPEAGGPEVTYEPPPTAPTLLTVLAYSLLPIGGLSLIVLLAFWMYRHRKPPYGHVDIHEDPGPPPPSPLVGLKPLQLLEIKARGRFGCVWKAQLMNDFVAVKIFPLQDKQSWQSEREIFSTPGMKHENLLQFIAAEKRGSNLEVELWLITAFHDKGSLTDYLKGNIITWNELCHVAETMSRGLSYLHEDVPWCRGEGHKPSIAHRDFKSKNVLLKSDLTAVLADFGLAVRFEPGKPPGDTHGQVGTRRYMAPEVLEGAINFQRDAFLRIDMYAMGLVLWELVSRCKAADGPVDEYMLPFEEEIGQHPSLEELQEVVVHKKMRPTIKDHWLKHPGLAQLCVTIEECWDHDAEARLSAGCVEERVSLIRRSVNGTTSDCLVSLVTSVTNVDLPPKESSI
T3 sequence (O00238 14-502): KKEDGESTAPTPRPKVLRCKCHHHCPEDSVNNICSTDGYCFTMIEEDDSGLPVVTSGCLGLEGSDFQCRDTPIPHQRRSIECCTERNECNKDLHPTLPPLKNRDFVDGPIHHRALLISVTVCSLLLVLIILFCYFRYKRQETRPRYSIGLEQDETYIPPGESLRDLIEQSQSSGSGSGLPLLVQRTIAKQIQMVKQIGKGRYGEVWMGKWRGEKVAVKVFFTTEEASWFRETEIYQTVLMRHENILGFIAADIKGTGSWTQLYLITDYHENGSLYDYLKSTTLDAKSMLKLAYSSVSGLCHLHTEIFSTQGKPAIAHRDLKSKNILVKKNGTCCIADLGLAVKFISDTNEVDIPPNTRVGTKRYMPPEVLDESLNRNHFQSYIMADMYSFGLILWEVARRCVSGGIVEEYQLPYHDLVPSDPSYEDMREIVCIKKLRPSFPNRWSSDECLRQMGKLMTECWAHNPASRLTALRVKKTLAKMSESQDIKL
T15 sequence (P36896 24-505): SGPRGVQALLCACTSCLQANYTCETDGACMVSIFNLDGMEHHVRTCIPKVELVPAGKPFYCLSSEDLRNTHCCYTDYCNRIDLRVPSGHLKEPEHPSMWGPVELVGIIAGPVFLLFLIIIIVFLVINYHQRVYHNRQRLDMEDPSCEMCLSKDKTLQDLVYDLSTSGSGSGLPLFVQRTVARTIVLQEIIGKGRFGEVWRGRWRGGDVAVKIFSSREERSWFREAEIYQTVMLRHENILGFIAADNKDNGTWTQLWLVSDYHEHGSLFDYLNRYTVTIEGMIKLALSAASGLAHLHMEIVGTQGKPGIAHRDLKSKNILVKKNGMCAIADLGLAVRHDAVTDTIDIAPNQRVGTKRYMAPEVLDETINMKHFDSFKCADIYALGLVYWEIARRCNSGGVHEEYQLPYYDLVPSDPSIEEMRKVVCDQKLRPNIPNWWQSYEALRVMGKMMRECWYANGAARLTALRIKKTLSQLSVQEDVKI
T7 sequence (P37173 23-567): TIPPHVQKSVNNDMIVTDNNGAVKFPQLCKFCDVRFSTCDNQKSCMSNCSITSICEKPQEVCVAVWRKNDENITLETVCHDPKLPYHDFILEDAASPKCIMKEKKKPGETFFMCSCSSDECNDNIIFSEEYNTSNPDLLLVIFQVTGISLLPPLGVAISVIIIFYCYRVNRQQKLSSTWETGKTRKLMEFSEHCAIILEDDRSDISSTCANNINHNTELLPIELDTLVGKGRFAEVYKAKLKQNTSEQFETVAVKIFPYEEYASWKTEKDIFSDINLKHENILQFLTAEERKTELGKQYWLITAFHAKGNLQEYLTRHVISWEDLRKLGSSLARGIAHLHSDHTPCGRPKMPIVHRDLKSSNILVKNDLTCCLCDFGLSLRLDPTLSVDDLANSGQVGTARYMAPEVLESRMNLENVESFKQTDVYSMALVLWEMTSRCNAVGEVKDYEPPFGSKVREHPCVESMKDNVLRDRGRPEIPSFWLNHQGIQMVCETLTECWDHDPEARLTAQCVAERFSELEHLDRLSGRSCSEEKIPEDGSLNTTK
T16 sequence (P27037 20-513): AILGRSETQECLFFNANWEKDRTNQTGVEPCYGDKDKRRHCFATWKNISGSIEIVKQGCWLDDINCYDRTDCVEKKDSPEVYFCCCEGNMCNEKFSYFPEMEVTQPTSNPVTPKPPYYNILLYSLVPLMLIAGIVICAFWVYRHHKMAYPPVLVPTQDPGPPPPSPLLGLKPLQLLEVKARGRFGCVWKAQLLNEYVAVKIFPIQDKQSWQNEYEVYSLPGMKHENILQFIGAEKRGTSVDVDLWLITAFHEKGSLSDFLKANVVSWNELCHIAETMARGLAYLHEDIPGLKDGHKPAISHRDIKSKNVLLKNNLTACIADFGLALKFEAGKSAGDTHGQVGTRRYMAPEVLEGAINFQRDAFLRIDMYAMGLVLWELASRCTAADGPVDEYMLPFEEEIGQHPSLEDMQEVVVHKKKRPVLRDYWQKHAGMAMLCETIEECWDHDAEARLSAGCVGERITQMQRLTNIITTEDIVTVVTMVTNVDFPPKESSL
T2 sequence (Q9UKE5 whole entry): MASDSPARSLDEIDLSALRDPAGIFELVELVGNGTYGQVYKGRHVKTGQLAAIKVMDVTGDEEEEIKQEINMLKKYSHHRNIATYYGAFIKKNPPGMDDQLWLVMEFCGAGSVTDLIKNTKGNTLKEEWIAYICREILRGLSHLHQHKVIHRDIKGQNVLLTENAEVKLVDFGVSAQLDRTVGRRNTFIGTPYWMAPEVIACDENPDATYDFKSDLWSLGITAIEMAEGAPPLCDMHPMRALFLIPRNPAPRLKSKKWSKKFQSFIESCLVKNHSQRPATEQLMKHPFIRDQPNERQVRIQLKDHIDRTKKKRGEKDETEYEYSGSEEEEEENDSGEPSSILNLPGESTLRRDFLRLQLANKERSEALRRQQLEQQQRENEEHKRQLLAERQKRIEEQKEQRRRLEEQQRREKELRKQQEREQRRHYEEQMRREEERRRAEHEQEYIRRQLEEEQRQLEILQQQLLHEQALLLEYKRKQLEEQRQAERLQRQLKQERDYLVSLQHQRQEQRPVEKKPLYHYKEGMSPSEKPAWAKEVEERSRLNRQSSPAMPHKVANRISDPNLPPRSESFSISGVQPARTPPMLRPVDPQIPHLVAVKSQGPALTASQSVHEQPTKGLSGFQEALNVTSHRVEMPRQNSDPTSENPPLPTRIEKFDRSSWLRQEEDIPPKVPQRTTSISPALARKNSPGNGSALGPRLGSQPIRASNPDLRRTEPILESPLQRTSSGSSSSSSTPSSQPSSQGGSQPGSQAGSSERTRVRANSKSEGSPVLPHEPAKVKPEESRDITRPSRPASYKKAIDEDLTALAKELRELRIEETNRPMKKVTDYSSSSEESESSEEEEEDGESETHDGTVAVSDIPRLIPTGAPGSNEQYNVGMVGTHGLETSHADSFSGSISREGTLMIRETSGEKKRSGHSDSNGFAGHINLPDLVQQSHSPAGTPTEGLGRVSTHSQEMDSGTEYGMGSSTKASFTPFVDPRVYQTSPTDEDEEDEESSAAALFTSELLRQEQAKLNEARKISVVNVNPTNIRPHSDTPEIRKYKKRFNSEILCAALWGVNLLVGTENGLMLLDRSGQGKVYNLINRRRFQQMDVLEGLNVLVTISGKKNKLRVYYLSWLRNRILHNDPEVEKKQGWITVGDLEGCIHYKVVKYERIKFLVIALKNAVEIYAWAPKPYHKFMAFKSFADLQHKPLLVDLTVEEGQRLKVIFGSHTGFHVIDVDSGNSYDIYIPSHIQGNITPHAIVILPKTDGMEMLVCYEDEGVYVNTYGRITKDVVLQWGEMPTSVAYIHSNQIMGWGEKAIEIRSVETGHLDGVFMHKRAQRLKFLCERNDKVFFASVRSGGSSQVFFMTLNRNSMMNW
T8 sequence (P49674 whole entry): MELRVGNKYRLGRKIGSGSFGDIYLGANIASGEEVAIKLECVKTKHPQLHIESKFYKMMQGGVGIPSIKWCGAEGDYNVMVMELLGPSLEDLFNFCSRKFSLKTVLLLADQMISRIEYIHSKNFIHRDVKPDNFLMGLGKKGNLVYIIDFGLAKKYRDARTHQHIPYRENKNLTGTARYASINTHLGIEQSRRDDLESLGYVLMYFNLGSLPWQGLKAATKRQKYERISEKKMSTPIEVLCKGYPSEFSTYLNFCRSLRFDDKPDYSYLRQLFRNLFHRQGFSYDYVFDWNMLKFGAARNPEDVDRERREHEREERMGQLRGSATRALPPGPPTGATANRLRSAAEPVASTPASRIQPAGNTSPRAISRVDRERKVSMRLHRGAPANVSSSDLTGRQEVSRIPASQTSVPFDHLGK
T5 sequence (P37023 22-503): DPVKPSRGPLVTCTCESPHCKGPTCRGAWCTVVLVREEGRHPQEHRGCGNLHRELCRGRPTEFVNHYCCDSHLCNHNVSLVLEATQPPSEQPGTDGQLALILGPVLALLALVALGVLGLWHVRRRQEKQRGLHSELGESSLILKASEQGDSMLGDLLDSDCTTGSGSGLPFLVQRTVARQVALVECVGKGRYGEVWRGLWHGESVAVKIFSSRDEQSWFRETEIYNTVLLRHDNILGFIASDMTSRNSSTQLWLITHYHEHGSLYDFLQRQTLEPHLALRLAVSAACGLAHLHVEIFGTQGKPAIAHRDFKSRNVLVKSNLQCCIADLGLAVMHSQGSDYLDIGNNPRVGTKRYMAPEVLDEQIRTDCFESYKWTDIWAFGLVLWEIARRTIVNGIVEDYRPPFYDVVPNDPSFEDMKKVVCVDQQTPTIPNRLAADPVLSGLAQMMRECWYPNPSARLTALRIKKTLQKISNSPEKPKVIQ
TGFβRII, sequence (P37173 23-567): as the sequence (P37173 23-567) above

With `Cc1cccc(-c2nn3c(c2-c2ccnc4ccc(C(N)=O)cc24)CCC3)n1.O` [galunisertib, 4-[2-(6-methylpyridin-2-yl)-5,6-dihydro-4H-pyrrolo[1,2-b]pyrazol-3-yl]quinoline-6-carboxamide monohydrate] the IC50 ([1]; Mv1Lu) was 251 nM, the IC50 [1] was 250 nM and the tumor growth delay ([2]; 75 mg/kg twice daily oral gavage, 500 mm^3 crossing time, p < 0.01) was 13 ± 2.4 days. For the same molecule, the survival advantage ([2]; 75 mg/kg twice daily, Kaplan-Meier, p = 0.01) was 4.5 days, the body weight [2, 4] was “No body weight loss” and the IC50 (BMPR2) was greater than 60000 nM. It also gave an IC50 (TNIK) of 510 nM, an IC50 (Alk6/BMPR1) of 470 nM and an IC50 (Alk6/BMPR1; listed as Galunisertib) of 471 nM. It also gave an IC50 (Abl1) of 860 nM, an IC50 (Alk1/ACVRL1) greater than 20000 nM and an IC50 (NLK) of 910 nM. For the same molecule, the IC50 (TGFβR2) was 210 nM, the IC50 (TGFβR2; listed as Galunisertib) was 208 nM and the IC50 (CSNK1E1) was 400 nM. The IC50 (MINK) was 190 nM, the IC50 (GAK) was 310 nM and the IC50 (Alk2/ACVR1) was greater than 20000 nM. For the same molecule, the IC50 (RSK4) was 720 nM, the IC50 (Alk3/BMPR1A) was 16800 nM and the IC50 (ACVR2B) was 690 nM and 694 nM. For the same molecule, the IC50 (Braf) was 500 nM, the IC50 (Alk4/ACVR1B) was 80 nM and the IC50 (Alk4/ACVR1B; listed as Galunisertib) was 77.7 nM. The IC50 (ACVR2A) was greater than 20000 nM, the IC50 (ZAK) was 860 nM and the IC50 (RIPK2) was 220 nM. The TGFβ1-enhanced cell migration (U87MG glioblastoma cells; 1, 3, 10 μM, rhTGFβ1 10 ng/ml, 48 hours) was “blocked cell migration in a dose dependent manner”, the “baseline migration in the absence of exogenous TGFβ1” value (U87MG glioblastoma cells; galunisertib alone) was “reduced baseline migration” and the IC50 (TGFβRII) was 2000 nM. The tumor growth delay ([3]; 75 mg/kg twice daily oral gavage, 1500 mm^3 crossing time, p = 0.014) was 10.3 ± 4.3 days and the body weight [3, 4] was “No body weight loss”.
